Tested on: 282377-053-R-J1-PDC complex spheroid viability
Experiment: Anticancer human tumor 282377-053-R-J1-PDC patient-derived colon adenocarcinoma cell line growth inhibition [POLQ]
Conditions: for IC50: curve of first compound; for viability, T/C: stronger effect = lower value
In short: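 Complex spheroid viability model combining PDC tumour cells with endothelial (HUVEC) and MSC stromal cells. Novobiocin, ART-558 or RP6685 were tested singly and in combination with standard and investigational anticancer drugs. Each was titrated in half-log steps from near clinical Cmax, or from 10 microM where Cmax was unknown.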

[1] = second compound 0.0316 µM, first compound 0.0316 µM
[2] = second compound 0.0316 µM, first compound 0.1 µM
[3] = second compound 0.0316 µM, first compound 0.316 µM
[4] = second compound 0.0316 µM, first compound 1 µM
[5] = second compound 0.0316 µM, first compound 3.16 µM
[6] = second compound 0.0316 µM, first compound 10 µM
[7] = second compound 0.1 µM, first compound 0.0316 µM
[8] = second compound 0.1 µM, first compound 0.1 µM
[9] = second compound 0.1 µM, first compound 0.316 µM
[10] = second compound 0.1 µM, first compound 1 µM
[11] = second compound 0.1 µM, first compound 3.16 µM
[12] = second compound 0.1 µM, first compound 10 µM
[13] = second compound 0.316 µM, first compound 0.0316 µM
[14] = second compound 0.316 µM, first compound 0.1 µM
[15] = second compound 0.316 µM, first compound 0.316 µM
[16] = second compound 0.316 µM, first compound 1 µM
[17] = second compound 0.316 µM, first compound 3.16 µM
[18] = second compound 0.316 µM, first compound 10 µM
[19] = second compound 1 µM, first compound 0.0316 µM
[20] = second compound 1 µM, first compound 0.1 µM
[21] = second compound 1 µM, first compound 0.316 µM
[22] = second compound 1 µM, first compound 1 µM
[23] = second compound 1 µM, first compound 3.16 µM
[24] = second compound 1 µM, first compound 10 µM
[25] = second compound 3.16 µM, first compound 0.0316 µM
[26] = second compound 3.16 µM, first compound 0.1 µM
[27] = second compound 3.16 µM, first compound 0.316 µM
[28] = second compound 3.16 µM, first compound 1 µM
[29] = second compound 3.16 µM, first compound 3.16 µM
[30] = second compound 3.16 µM, first compound 10 µM
[31] = second compound 10 µM, first compound 0.0316 µM
[32] = second compound 10 µM, first compound 0.1 µM
[33] = second compound 10 µM, first compound 0.316 µM
[34] = second compound 10 µM, first compound 1 µM
[35] = second compound 10 µM, first compound 3.16 µM
[36] = second compound 10 µM, first compound 10 µM
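Also: spheroids exposed to compounds for seven days.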
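For viability, T/C in this document: 100% = DMSO vehicle control viability.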

SMILES: CC(C)n1c(=O)n(C)c2cnc3cc(F)c(-c4ccc(OCCCN5CCCCC5)nc4)cc3c21 + COC1C(OC(N)=O)C(O)C(Oc2ccc3c(O)c(NC(=O)c4ccc(O)c(CC=C(C)C)c4)c(=O)oc3c2C)OC1(C)C
- IC50 (second compound 0.0316 µM): > 10 µM
- IC50 (second compound 0.1 µM): > 10 µM
- IC50 (second compound 0.316 µM): > 10 µM
- IC50 (second compound 1 µM): > 10 µM
- IC50 (second compound 3.16 µM): > 10 µM
- IC50 (second compound 10 µM): > 10 µM
- viability, T/C [1]: 116%
- viability, T/C [2]: 125%
- viability, T/C [3]: 113%
- viability, T/C [4]: 104%
- viability, T/C [5]: 112%
- viability, T/C [6]: 120%
- viability, T/C [7]: 107%
- viability, T/C [8]: 116%
- viability, T/C [9]: 110%
- viability, T/C [10]: 104%
- viability, T/C [11]: 118%
- viability, T/C [12]: 103%
- viability, T/C [13]: 108%
- viability, T/C [14]: 93%
- viability, T/C [15]: 105%
- viability, T/C [16]: 108%
- viability, T/C [17]: 107%
- viability, T/C [18]: 89.6%
- viability, T/C [19]: 112%
- viability, T/C [20]: 88.4%
- viability, T/C [21]: 99.5%
- viability, T/C [22]: 106%
- viability, T/C [23]: 119%
- viability, T/C [24]: 78.4%
- viability, T/C [25]: 113%
- viability, T/C [26]: 114%
- viability, T/C [27]: 108%
- viability, T/C [28]: 114%
- viability, T/C [29]: 106%
- viability, T/C [30]: 101%
- viability, T/C [31]: 98.2%
- viability, T/C [32]: 104%
- viability, T/C [33]: 93.8%
- viability, T/C [34]: 99.2%
- viability, T/C [35]: 95.8%
- viability, T/C [36]: 98.8%

SMILES: CC1COCCN1c1cc(-c2ccnn2C)c2ccnc(-c3ccn[nH]3)c2n1 (stereo not given) + COC1C(OC(N)=O)C(O)C(Oc2ccc3c(O)c(NC(=O)c4ccc(O)c(CC=C(C)C)c4)c(=O)oc3c2C)OC1(C)C
- IC50 (second compound 0.0316 µM): 0.377 µM
- IC50 (second compound 0.1 µM): 0.398 µM
- IC50 (second compound 0.316 µM): 0.589 µM
- IC50 (second compound 1 µM): 0.677 µM
- IC50 (second compound 3.16 µM): 0.45 µM
- IC50 (second compound 10 µM): 0.642 µM
- viability, T/C [1]: 107%
- viability, T/C [2]: 99.6%
- viability, T/C [3]: 52.5%
- viability, T/C [4]: 34.2%
- viability, T/C [5]: 26.9%
- viability, T/C [6]: 25.4%
- viability, T/C [7]: 95.2%
- viability, T/C [8]: 80.5%
- viability, T/C [9]: 52.7%
- viability, T/C [10]: 36.5%
- viability, T/C [11]: 33.9%
- viability, T/C [12]: 27.6%
- viability, T/C [13]: 95.6%
- viability, T/C [14]: 87.5%
- viability, T/C [15]: 59.9%
- viability, T/C [16]: 41.1%
- viability, T/C [17]: 25.9%
- viability, T/C [18]: 20.4%
- viability, T/C [19]: 89.1%
- viability, T/C [20]: 85.3%
- viability, T/C [21]: 68.4%
- viability, T/C [22]: 40%
- viability, T/C [23]: 27.4%
- viability, T/C [24]: 21.4%
- viability, T/C [25]: 102%
- viability, T/C [26]: 94.8%
- viability, T/C [27]: 57.3%
- viability, T/C [28]: 32.5%
- viability, T/C [29]: 26.5%
- viability, T/C [30]: 22.6%
- viability, T/C [31]: 121%
- viability, T/C [32]: 80.8%
- viability, T/C [33]: 66.7%
- viability, T/C [34]: 39.7%
- viability, T/C [35]: 33.3%
- viability, T/C [36]: 21.8%

SMILES: CCc1cc2c(N3CCc4c(cc(Cn5ccnc5)cc4-c4cn(C)nc4C(F)(F)F)C3=O)ccnc2c(OC)n1 + COC1C(OC(N)=O)C(O)C(Oc2ccc3c(O)c(NC(=O)c4ccc(O)c(CC=C(C)C)c4)c(=O)oc3c2C)OC1(C)C
- IC50 (second compound 0.0316 µM): > 10 µM
- IC50 (second compound 0.1 µM): > 10 µM
- IC50 (second compound 0.316 µM): > 10 µM
- IC50 (second compound 1 µM): > 10 µM
- IC50 (second compound 3.16 µM): > 10 µM
- IC50 (second compound 10 µM): > 10 µM
- viability, T/C [1]: 114%
- viability, T/C [2]: 132%
- viability, T/C [3]: 139%
- viability, T/C [4]: 144%
- viability, T/C [5]: 135%
- viability, T/C [6]: 72.3%
- viability, T/C [7]: 120%
- viability, T/C [8]: 153%
- viability, T/C [9]: 140%
- viability, T/C [10]: 146%
- viability, T/C [11]: 118%
- viability, T/C [12]: 90.6%
- viability, T/C [13]: 147%
- viability, T/C [14]: 110%
- viability, T/C [15]: 132%
- viability, T/C [16]: 130%
- viability, T/C [17]: 127%
- viability, T/C [18]: 78%
- viability, T/C [19]: 124%
- viability, T/C [20]: 109%
- viability, T/C [21]: 123%
- viability, T/C [22]: 134%
- viability, T/C [23]: 132%
- viability, T/C [24]: 95.4%
- viability, T/C [25]: 124%
- viability, T/C [26]: 124%
- viability, T/C [27]: 150%
- viability, T/C [28]: 145%
- viability, T/C [29]: 118%
- viability, T/C [30]: 86.9%
- viability, T/C [31]: 115%
- viability, T/C [32]: 127%
- viability, T/C [33]: 144%
- viability, T/C [34]: 161%
- viability, T/C [35]: 113%
- viability, T/C [36]: 92.9%

SMILES: COc1cc2cc(C(=O)CCC(=O)O)sc2cc1OC + COC1C(OC(N)=O)C(O)C(Oc2ccc3c(O)c(NC(=O)c4ccc(O)c(CC=C(C)C)c4)c(=O)oc3c2C)OC1(C)C
- IC50 (second compound 0.0316 µM): > 10 µM
- IC50 (second compound 0.1 µM): > 10 µM
- IC50 (second compound 0.316 µM): > 10 µM
- IC50 (second compound 1 µM): > 10 µM
- IC50 (second compound 3.16 µM): > 10 µM
- IC50 (second compound 10 µM): > 10 µM
- viability, T/C [1]: 118%
- viability, T/C [2]: 103%
- viability, T/C [3]: 128%
- viability, T/C [4]: 104%
- viability, T/C [5]: 113%
- viability, T/C [6]: 99.3%
- viability, T/C [7]: 105%
- viability, T/C [8]: 105%
- viability, T/C [9]: 116%
- viability, T/C [10]: 107%
- viability, T/C [11]: 99.1%
- viability, T/C [12]: 88.3%
- viability, T/C [13]: 121%
- viability, T/C [14]: 102%
- viability, T/C [15]: 83.1%
- viability, T/C [16]: 105%
- viability, T/C [17]: 86.9%
- viability, T/C [18]: 93.2%
- viability, T/C [19]: 109%
- viability, T/C [20]: 97.1%
- viability, T/C [21]: 109%
- viability, T/C [22]: 97.1%
- viability, T/C [23]: 114%
- viability, T/C [24]: 86.6%
- viability, T/C [25]: 111%
- viability, T/C [26]: 87.3%
- viability, T/C [27]: 119%
- viability, T/C [28]: 99.5%
- viability, T/C [29]: 86.7%
- viability, T/C [30]: 115%
- viability, T/C [31]: 99%
- viability, T/C [32]: 93.7%
- viability, T/C [33]: 117%
- viability, T/C [34]: 115%
- viability, T/C [35]: 105%
- viability, T/C [36]: 123%

SMILES: COc1ccc([C@@H](O)c2cc(-c3ncnc4cc(N5CCOCC5)ccc34)c(F)cc2Cl)nn1 + COC1C(OC(N)=O)C(O)C(Oc2ccc3c(O)c(NC(=O)c4ccc(O)c(CC=C(C)C)c4)c(=O)oc3c2C)OC1(C)C
- IC50 (second compound 0.0316 µM): > 10 µM
- IC50 (second compound 0.1 µM): > 10 µM
- IC50 (second compound 0.316 µM): > 10 µM
- IC50 (second compound 1 µM): > 10 µM
- IC50 (second compound 3.16 µM): > 10 µM
- IC50 (second compound 10 µM): > 10 µM
- viability, T/C [1]: 109%
- viability, T/C [2]: 105%
- viability, T/C [3]: 104%
- viability, T/C [4]: 85.4%
- viability, T/C [5]: 85.4%
- viability, T/C [6]: 78.5%
- viability, T/C [7]: 108%
- viability, T/C [8]: 106%
- viability, T/C [9]: 95.1%
- viability, T/C [10]: 73.7%
- viability, T/C [11]: 70.1%
- viability, T/C [12]: 62.3%
- viability, T/C [13]: 96.5%
- viability, T/C [14]: 89.3%
- viability, T/C [15]: 78.2%
- viability, T/C [16]: 88.1%
- viability, T/C [17]: 77.5%
- viability, T/C [18]: 69.2%
- viability, T/C [19]: 93.2%
- viability, T/C [20]: 90.9%
- viability, T/C [21]: 101%
- viability, T/C [22]: 87.2%
- viability, T/C [23]: 95%
- viability, T/C [24]: 66.2%
- viability, T/C [25]: 94%
- viability, T/C [26]: 91.8%
- viability, T/C [27]: 90.7%
- viability, T/C [28]: 89.4%
- viability, T/C [29]: 79.3%
- viability, T/C [30]: 57.6%
- viability, T/C [31]: 102%
- viability, T/C [32]: 91.6%
- viability, T/C [33]: 91.7%
- viability, T/C [34]: 92.2%
- viability, T/C [35]: 60.1%
- viability, T/C [36]: 75.7%

From PubChem BioAssay AID1963852 (Molecular Pharmacology Branch, DTP, NCI, 2024)
